Measured values taken from ChEMBL document CHEMBL4024706 (Eur J Med Chem, 2017).

What was measured:
[1] = target: Aurora kinase A (Homo sapiens) (UniProt O14965); test: Inhibition of wild-type human partial length AURKA (E122 to K401 residues) expressed in mammalian expression system assessed as residual activity at 1 uM by Kinomescan method relative to control
[2] = tested on: Tyrosine-protein kinase ABL1 (Homo sapiens), P00519 [Y253F]; test: Inhibition of human phosphorylated ABL1 Y253F mutant (S229 to K512 residues) expressed in mammalian expression system assessed as residual activity at 1 uM by Kinomescan method relative to control
[3] = target: Non-receptor tyrosine-protein kinase TYK2 (Homo sapiens) (UniProt P29597); test: Inhibition of wild-type human partial length TYK2 JH1 catalytic domain (V877 to C1187 residues) expressed in mammalian expression system assessed as residual activity at 1 uM by Kinomescan method relative to control
[4] = target: Insulin receptor-related protein (Homo sapiens) (UniProt P14616); test: Inhibition of wild-type human partial length INSRR (R950 to E1278 residues) expressed in bacterial expression system assessed as residual activity at 1 uM by Kinomescan method relative to control
[5] = tested on: Phosphatidylinositol 4,5-bisphosphate 3-kinase catalytic subunit alpha isoform (Homo sapiens), P42336 [E542K]; test: Inhibition of human partial length PIK3CA E542K mutant (R108 to N1068 residues) expressed in mammalian expression system assessed as residual activity at 1 uM by Kinomescan method relative to control
[6] = target: MAP kinase-interacting serine/threonine-protein kinase 2 (Homo sapiens) (UniProt Q9HBH9); test: Inhibition of wild-type human partial length MKNK2 (G63 to S388 residues) expressed in mammalian expression system assessed as residual activity at 1 uM by Kinomescan method relative to control
[7] = target: Ribosomal protein S6 kinase alpha-5 (Homo sapiens) (UniProt O75582); test: Inhibition of wild-type human partial length N-terminal RPS6KA5 kinase domain 1 expressed in bacterial expression system assessed as residual activity at 1 uM by Kinomescan method relative to control
[8] = tested on: Epidermal growth factor receptor (Homo sapiens), P00533 [UNDEFINED MUTATION]; test: Inhibition of human partial length EGFR S752-I759del mutant expressed in bacterial expression system assessed as residual activity at 1 uM by Kinomescan method relative to control
[9] = target: Dual specificity mitogen-activated protein kinase kinase 5 (Homo sapiens) (UniProt Q13163); test: Inhibition of wild-type human partial length MEK5 (L98 to P448 residues) expressed in mammalian expression system assessed as residual activity at 1 uM by Kinomescan method relative to control
[10] = target: Serine/threonine-protein kinase VRK2 (Homo sapiens) (UniProt Q86Y07); test: Inhibition of wild-type human partial length VRK2 (M1 to T336 residues) expressed in mammalian expression system assessed as residual activity at 1 uM by Kinomescan method relative to control
[11] = target: Serine/threonine-protein kinase ICK (Homo sapiens) (UniProt Q9UPZ9); test: Inhibition of wild-type human partial length ICK (M1 to P314 residues) expressed in mammalian expression system assessed as residual activity at 1 uM by Kinomescan method relative to control
[12] = Cmax in Sprague-Dawley rat at 10 mg/kg, po by LC-MS/MS method; assay type: ADME, organism-based; set-up: dose 10 mg/kg, route oral; conditions: in vivo
[13] = target: Serine/threonine-protein kinase SBK1 (Homo sapiens) (UniProt Q52WX2); test: Inhibition of wild-type human partial length SBK1 (P23 to P348 residues) expressed in mammalian expression system assessed as residual activity at 1 uM by Kinomescan method relative to control
[14] = tested on: Tyrosine-protein kinase ABL1 (Homo sapiens), P00519 [E255K]; test: Inhibition of human phosphorylated ABL1 E255K mutant (S229 to K512 residues) expressed in mammalian expression system assessed as residual activity at 1 uM by Kinomescan method relative to control
[15] = target: Macrophage colony-stimulating factor 1 receptor (Homo sapiens) (UniProt P07333); test: Inhibition of wild-type human partial length autoinhibited CSF1R (Y538 to S939 residues) expressed in mammalian expression system assessed as residual activity at 1 uM by Kinomescan method relative to control
[16] = target: Serine/threonine-protein kinase Nek5 (Homo sapiens) (UniProt Q6P3R8); test: Inhibition of wild-type human partial length NEK5 (M1 to M279 residues) expressed in bacterial expression system assessed as residual activity at 1 uM by Kinomescan method relative to control
[17] = target: Tyrosine-protein kinase FRK (Homo sapiens) (UniProt P42685); test: Inhibition of wild-type human partial length FRK (A215 to F503 residues) expressed in bacterial expression system assessed as residual activity at 1 uM by Kinomescan method relative to control
[18] = target: NUAK family SNF1-like kinase 2 (Homo sapiens) (UniProt Q9H093); test: Inhibition of wild-type human partial length SNARK (P22 to A333 residues) expressed in mammalian expression system assessed as residual activity at 1 uM by Kinomescan method relative to control
[19] = target: Dual specificity protein kinase CLK4 (Homo sapiens) (UniProt Q9HAZ1); test: Inhibition of wild-type human partial length CLK4 (R135 to K481 residues) expressed in bacterial expression system assessed as residual activity at 1 uM by Kinomescan method relative to control
[20] = tested on: Tyrosine-protein kinase ABL1 (Homo sapiens), P00519 [H396P]; test: Inhibition of human phosphorylated ABL1 H396P mutant (S229 to K512 residues) expressed in mammalian expression system assessed as residual activity at 1 uM by Kinomescan method relative to control
[21] = target: Tyrosine-protein kinase receptor UFO (Homo sapiens) (UniProt P30530); test: Inhibition of wild-type human partial length AXL (R497 to Y821 residues) expressed in bacterial expression system assessed as residual activity at 1 uM by Kinomescan method relative to control
[22] = target: Serine/threonine-protein kinase D3 (Homo sapiens) (UniProt O94806); test: Inhibition of wild-type human partial length PRKD3 (S543 to E863 residues) expressed in bacterial expression system assessed as residual activity at 1 uM by Kinomescan method relative to control
[23] = target: Receptor tyrosine-protein kinase erbB-3 (Homo sapiens) (UniProt P21860); test: Inhibition of wild-type human partial length ERBB3 (G684 to A987 residues) expressed in mammalian expression system assessed as residual activity at 1 uM by Kinomescan method relative to control
[24] = target: Eukaryotic translation initiation factor 2-alpha kinase 1 (Homo sapiens) (UniProt Q9BQI3); test: Inhibition of wild-type human partial length EIF2AK1 (Q147 to E603 residues) expressed in mammalian expression system assessed as residual activity at 1 uM by Kinomescan method relative to control
[25] = target: Tyrosine-protein kinase JAK1 (Homo sapiens) (UniProt P23458); test: Inhibition of wild-type human partial length JAK1 JH2 pseudokinase domain (R537 to D855 residues) expressed in mammalian expression system assessed as residual activity at 1 uM by Kinomescan method relative to control
Sequence of Tyrosine-protein kinase JAK1 (Homo sapiens) (P23458 whole entry, the tested form may be a part): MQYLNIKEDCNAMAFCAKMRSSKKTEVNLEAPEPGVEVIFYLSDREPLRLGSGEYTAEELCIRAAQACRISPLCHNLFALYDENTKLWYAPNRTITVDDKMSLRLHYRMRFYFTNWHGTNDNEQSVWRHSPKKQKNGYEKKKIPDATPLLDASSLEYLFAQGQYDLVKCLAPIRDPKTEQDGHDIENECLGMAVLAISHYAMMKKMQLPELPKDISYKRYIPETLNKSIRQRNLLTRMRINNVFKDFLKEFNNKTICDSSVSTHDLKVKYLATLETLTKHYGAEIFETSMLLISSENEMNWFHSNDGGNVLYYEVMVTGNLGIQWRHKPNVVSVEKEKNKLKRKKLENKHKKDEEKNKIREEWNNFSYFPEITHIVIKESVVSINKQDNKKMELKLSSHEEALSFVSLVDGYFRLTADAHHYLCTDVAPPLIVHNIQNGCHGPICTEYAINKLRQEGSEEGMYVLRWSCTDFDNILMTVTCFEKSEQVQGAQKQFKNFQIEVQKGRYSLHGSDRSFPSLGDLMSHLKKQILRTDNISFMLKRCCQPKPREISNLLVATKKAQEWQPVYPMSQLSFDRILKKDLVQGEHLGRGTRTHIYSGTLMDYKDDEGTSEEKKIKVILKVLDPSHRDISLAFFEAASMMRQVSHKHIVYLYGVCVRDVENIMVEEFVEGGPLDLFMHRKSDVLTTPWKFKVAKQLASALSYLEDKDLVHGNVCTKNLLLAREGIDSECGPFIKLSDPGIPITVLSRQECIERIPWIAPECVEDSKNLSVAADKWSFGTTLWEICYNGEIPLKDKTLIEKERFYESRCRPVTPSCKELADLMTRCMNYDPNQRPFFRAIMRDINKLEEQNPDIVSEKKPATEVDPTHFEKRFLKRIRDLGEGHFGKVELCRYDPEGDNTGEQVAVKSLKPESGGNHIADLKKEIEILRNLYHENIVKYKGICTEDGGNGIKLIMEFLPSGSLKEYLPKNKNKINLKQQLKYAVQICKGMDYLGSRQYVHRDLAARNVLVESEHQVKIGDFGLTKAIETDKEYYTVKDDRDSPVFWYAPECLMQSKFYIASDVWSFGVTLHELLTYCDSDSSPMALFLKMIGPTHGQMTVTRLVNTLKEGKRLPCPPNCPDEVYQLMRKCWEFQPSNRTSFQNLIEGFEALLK

Sequence of Serine/threonine-protein kinase Nek5 (Homo sapiens) (Q6P3R8 whole entry, the tested form may be a part): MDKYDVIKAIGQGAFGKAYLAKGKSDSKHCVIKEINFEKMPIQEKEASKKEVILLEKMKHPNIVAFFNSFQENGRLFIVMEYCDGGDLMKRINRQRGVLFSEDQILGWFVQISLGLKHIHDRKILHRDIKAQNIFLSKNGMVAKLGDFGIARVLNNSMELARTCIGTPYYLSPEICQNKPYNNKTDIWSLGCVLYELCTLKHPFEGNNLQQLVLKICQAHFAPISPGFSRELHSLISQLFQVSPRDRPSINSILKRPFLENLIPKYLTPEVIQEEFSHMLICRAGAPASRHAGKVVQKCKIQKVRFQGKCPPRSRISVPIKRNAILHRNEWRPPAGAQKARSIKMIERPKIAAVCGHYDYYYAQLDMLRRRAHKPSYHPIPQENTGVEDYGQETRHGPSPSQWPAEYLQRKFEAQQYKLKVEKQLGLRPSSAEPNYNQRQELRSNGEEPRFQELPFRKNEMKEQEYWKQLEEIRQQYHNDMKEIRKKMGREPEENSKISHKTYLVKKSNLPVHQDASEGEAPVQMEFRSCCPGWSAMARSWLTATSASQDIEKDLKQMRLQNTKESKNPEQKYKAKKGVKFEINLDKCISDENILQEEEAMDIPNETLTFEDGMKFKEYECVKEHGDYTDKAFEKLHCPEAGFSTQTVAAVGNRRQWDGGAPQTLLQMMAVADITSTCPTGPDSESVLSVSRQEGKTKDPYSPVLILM
Sequence of Tyrosine-protein kinase FRK (Homo sapiens) (P42685 whole entry, the tested form may be a part): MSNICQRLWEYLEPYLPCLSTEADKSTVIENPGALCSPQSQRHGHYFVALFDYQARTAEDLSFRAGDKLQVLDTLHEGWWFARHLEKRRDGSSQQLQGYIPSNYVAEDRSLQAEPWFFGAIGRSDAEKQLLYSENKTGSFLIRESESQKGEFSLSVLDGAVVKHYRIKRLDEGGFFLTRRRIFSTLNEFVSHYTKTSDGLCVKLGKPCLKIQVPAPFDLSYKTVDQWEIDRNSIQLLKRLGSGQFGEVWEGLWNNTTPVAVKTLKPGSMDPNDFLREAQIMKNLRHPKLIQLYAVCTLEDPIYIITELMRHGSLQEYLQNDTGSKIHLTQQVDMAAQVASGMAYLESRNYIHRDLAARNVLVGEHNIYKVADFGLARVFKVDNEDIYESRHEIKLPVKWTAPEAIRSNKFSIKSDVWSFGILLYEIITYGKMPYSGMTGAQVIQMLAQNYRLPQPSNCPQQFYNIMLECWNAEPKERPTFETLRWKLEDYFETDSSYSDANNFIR
Sequence of Dual specificity protein kinase CLK4 (Homo sapiens) (Q9HAZ1 whole entry, looked up, the tested form may be a part): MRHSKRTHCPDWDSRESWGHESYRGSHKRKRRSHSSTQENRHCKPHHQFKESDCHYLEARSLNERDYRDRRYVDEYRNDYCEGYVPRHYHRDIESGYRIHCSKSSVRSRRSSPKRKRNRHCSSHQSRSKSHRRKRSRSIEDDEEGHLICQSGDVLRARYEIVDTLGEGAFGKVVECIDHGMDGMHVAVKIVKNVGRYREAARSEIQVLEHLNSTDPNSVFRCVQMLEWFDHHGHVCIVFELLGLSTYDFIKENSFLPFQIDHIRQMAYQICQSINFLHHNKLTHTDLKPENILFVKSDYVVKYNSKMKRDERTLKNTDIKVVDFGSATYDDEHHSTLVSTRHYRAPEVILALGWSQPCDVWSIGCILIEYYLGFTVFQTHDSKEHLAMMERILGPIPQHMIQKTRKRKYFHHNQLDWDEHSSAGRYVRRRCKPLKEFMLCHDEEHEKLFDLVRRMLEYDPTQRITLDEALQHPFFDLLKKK
Sequence of Serine/threonine-protein kinase SBK1 (Homo sapiens) (Q52WX2 whole entry, the tested form may be a part): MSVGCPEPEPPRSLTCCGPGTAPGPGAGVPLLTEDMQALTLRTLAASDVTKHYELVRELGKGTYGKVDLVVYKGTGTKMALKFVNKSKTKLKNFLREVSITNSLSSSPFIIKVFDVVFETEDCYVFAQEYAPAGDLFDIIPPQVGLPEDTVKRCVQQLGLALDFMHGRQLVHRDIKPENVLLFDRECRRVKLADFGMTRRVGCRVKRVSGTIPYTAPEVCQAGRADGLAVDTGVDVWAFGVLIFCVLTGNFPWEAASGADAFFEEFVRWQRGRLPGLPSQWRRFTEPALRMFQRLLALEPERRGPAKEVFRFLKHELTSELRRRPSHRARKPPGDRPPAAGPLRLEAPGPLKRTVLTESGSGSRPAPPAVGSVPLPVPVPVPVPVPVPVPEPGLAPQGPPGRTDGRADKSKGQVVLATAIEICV
Sequence of Receptor tyrosine-protein kinase erbB-3 (Homo sapiens) (P21860 whole entry, the tested form may be a part): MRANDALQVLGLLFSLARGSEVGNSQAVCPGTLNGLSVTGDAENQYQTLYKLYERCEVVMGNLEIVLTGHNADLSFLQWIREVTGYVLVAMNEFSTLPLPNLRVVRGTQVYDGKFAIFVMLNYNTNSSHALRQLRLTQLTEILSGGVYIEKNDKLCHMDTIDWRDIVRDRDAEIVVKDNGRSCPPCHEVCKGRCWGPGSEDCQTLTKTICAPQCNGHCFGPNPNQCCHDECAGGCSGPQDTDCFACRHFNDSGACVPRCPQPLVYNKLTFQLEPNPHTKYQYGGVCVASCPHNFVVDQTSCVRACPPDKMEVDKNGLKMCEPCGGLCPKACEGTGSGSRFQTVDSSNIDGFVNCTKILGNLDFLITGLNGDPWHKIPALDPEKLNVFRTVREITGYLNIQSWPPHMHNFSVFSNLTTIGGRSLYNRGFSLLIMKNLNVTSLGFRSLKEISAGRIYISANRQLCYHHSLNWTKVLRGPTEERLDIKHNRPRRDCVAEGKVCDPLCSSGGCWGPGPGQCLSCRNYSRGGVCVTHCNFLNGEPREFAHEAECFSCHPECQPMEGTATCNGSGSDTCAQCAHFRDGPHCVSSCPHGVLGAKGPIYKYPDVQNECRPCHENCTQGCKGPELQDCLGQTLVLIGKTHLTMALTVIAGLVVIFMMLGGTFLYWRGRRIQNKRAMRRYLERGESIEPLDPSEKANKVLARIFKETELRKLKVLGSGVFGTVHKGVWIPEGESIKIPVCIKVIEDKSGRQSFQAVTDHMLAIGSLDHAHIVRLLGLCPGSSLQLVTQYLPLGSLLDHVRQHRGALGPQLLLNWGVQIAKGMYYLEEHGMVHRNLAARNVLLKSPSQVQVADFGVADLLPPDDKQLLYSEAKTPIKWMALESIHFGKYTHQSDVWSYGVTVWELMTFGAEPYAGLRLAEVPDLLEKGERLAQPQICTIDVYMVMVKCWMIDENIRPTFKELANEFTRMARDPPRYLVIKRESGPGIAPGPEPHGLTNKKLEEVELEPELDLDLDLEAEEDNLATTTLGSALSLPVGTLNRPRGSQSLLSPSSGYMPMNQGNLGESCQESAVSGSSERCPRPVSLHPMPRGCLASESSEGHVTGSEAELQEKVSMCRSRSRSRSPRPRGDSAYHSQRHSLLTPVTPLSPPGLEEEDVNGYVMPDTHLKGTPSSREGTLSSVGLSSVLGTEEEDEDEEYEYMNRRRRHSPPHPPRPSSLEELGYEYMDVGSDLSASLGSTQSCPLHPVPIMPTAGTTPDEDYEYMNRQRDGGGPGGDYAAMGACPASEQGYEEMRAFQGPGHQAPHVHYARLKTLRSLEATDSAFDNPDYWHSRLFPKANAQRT
Sequence of Dual specificity mitogen-activated protein kinase kinase 5 (Homo sapiens) (Q13163 whole entry, the tested form may be a part): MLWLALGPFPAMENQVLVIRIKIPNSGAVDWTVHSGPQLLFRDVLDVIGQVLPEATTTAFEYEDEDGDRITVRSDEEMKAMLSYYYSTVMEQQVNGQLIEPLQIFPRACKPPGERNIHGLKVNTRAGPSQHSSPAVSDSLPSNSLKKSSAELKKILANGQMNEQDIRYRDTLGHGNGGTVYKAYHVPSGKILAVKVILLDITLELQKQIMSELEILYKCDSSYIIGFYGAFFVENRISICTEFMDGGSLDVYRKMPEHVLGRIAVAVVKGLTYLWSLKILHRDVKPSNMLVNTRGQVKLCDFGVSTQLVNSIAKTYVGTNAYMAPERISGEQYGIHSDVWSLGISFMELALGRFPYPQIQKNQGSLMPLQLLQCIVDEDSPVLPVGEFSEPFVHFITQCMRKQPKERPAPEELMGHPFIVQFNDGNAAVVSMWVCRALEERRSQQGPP

C=CC(=O)Nc1cc(Nc2cc(-c3cccc(NC(=O)c4ccc(C(C)(C)C)cc4)c3C)cn(C)c2=O)ccc1C(=O)N1CCOCC1
Activity [1]: 61% | Activity [2]: 97% | Activity [3]: 74% | Activity [4]: 100% | Activity [5]: 94% | Activity [6]: 89% | Activity [7]: 97% | Activity [8]: 97% | Activity [9]: 98% | Activity [10]: 100% | Activity [11]: 100% | Cmax [12]: 32.8 ng/mL | Activity [13]: 100% | Activity [14]: 100% | Activity [15]: 100% | Activity [16]: 100% | Activity [17]: 84% | Activity [18]: 87% | Activity [19]: 90% | Activity [20]: 100% | Activity [21]: 86% | Activity [22]: 100% | Activity [23]: 88% | Activity [24]: 84% | Activity [25]: 86%
